From US12128041B2, “Nanoparticles for delivering drug, whose surface is modified with peptide for targeting brain cancer, preparation method thereof and use thereof” (UNIVERSITY-INDUSTRY COOPERATION GROUP OF KYUNG HEE …, priority 2020, dated 2024)
Read-outs that look alike come from different tables or passages of the source. Values belong to the compound of their own block, whether it stands above or below them. Where a SMILES comes first, the peptide text is derived from it.

What was measured:
U87MG cells [1] = assay: Cytotoxicity in U87MG cells, WST-1 cell viability; format: cell-based, human; settings: 6 hours
Procedure: (§1) The present inventor conducted the following experiments to confirm the intracellular uptake efficiency and cytotoxicity of SIWV-pSiNP(SN-38). Specifically, U87MG cells were seeded into 96-well plates at a density of 10,000 cells/well and cultured under the conditions of 5% CO2 and 37° C. for 24 hours. Thereafter, the cells were treated with 100 μL of each of the SN-38 drug alone, pSiNPs, pSiNP(SN-38) and SIWV-pSiNP(SN-38) nanoparticles at a concentration of 6.25, 12.5, 25, 50, and 100 μM, respectively, and cultured for 6 hours. After 6 hours, in order to confirm the intracellular uptake efficiency, cell nuclei were stained by treating the cells with a 4′,6-diamino-2-phenylindole (DAPI) reagent for 10 minutes, and cell membranes were then stained by treating the cells with a CellMask™ Deep Red Plasma membrane stain reagent for 1 hour. After staining, the cells were washed three times with PBS and treated with 4% paraformaldehyde for 20 minutes to fix the cells, and then the cells were observed under a confocal microscope.
Meanwhile, after the cells were treated with SN-38 and each of the nanoparticles as described above and cultured for 6 hours, 10 μL of a 10% WST-1 reagent was added to each well and the cells were cultured for 2 hours. Thereafter, cell viability was analyzed by measuring the absorbance at 450 nm using a microplate reader, and the cell viability was analyzed using a relative percentage for U87MG cells not treated with nanoparticles.

U87MG cells [2] = assay: Intracellular uptake in U87MG cells by confocal microscope; format: cell-based, human; settings: cultured for 6 hours
Procedure: as §1

[3] = mouse, in vivo
[4] = Passage through the blood-brain barrier, confocal microscopy of brain tissue sections; format: in vivo, mice; settings: brain removed 3 hours after tail vein injection of SIWV-TAMRA
[5] = In vivo distribution of TAMRA-labeled SIWV peptide in healthy mice by fluorescence signal; settings: tail vein injection

Compound: CCc1c2c(nc3ccc(O)cc13)-c1cc3c(c(=O)n1C2)COC(=O)[C@]3(O)CC [SN-38, 7-ethyl-10-hydroxy-camptothecin]
cytotoxicity (toxicity of U87MG cells) (U87MG cells [1]; 6.5 μM): 12.4%
cytotoxicity (U87MG cells [1]; 100 μM): 55.4%
concentration dependence of toxicity (U87MG cells [1]; U87MG cells, 6.25 to 100 μM): increased toxicity as the treatment concentration was increased
intracellular uptake (U87MG cells [2]): intracellular uptake did not occur

time of excretion from the body [3]: 24 h
passage through the blood-brain barrier [4]: passed through the blood-brain barrier
Compound: CC[C@H](C)[C@H](NC(=O)[C@@H](N)CO)C(=O)N[C@@H](Cc1c[nH]c2ccccc12)C(=O)N[C@H](C(=O)O)C(C)C [SIWV peptide] (H-SIWV-OH; N-terminus and C-terminus assumed)

Compound: CN(C)c1ccc2c(-c3ccccc3C(=O)[O-])c3ccc(N(C)C)cc3[o+]c2c1 [TAMRA, tetramethylrhodamine]
time of excretion from the body [5]: ≤ 2 h
